Source: patent US8877949B2, “Furo[3,2-g]chromene compounds and uses thereof” (Shenyang Pharmaceutical University, priority 2010, dated 2014)

Experiments:
[1] = system: Ovarian Cancer Cells SKOV3; assay: Effect on the proliferation of ovarian cancer cells SKOV3 (MTT); assay type: cell-based
Description: Cells in the logarithmic growth phase were digested with trypsin, added to a 96-well plate, in a density of 6×10^3 cells/well, and cultured in a 37° C., 5% CO2 incubator. The next day, the plated was transferred to and kept in a 4° C. incubator for 1 h after the adherence of most cells, so as to achieve synchronized growth of the cells. The supernatant was sucked out, and a RPMI 1640 medium containing 10% fetal calf serum (FCS) was added, 200 μL/well. The cells were grouped according to the design of the experiment. The injectable solution of the compound prepared with sterile physiological saline was added to the 96 wells, 200 μL/well, so that the concentrate of the medicament in each well were 1 mg/mL, 2 mg/mL and 5 mg/mL, respectively. A concentration of 0 mg/mL was used as a negative control group. After subsequent cultivation for 24, 48, or 72 h, 20 μL MTT solution (with a concentration of 5 mg/mL) was added to each well, respectively. The plate was shaken gently, returned to the incubator and incubated for another 4 h. Then the supernatant was sucked out completely, and 200 μL of dimethyl sulfoxide was added to each well. The plate was shaken for 5-10 min on a shaker. The absorption (A=580) of each well at a wavelength of 580 nm was measured using a microplate reader. The A=580 value was proportional to the number of live cells.

[2] = system: Osteosarcoma Cells U2OS-EGFP-4A12G; assay: Effect on the proliferation of osteosarcoma cells U2OS-EGFP-4A12G (MTT); assay type: cell-based; conditions: n = 3
Description: Cells in the logarithmic growth phase were digested with trypsin, counted with trypan blue, and prepared into a cellular suspension with a density of 1×10^4 cells/mL. The suspension was seeded in a 96-well plate, 200 μL/well, about 2×10^3 cells/well, and pre-cultured for 24 h. […] A concentration of 0 mg/mL was used as a negative control group. After subsequent cultivatation for 0 h, 12 h, 24 h or 48 h, 20 μL MTT solution (5 mg/mL) was added to each well. The cultivation was terminated after another 4 h incubation. The supernatant in each well was sucked out carefully, and 150 μL of dimethyl sulfoxide (DMSO) was added to each well. The plate was shaken for 10 min, so that formazan was dissolved thoroughly. The absorption value (A value) of each well was measured using an enzyme linked immunosorbent detector, at a selected wavelength of 490 nm. The measurement was repeated for 5 times.

Compound	melting point	IC50 ([1]; Homo sapiens, SK-OV-3, n = 3)	IC50 [2]	IC50 ([1]; n = 3)
COc1ccc(-c2c(C(=O)c3ccccc3)oc3cc4c(cc23)CCCO4)cc1 [Example 1, 2-benzoyl-3-(4-methoxyphenyl)-6,7-dihydrogen-5H-furo[3,2-g]chromene]	106.3 to 108.5 °C	–	–	–
Cc1ccc(C(=O)c2oc3cc4c(cc3c2-c2ccc(OCCN(C)C)cc2)CCCO4)cc1 [Example 36, 2-(4-methylbenzoyl)-3-[4-(dimethylaminoethoxy)phenyl]-6,7-dihydrogen-5H-furo[3,2-g]chromene]	–	10.3 µM	7.7 µM	–
O=C(c1ccc(Br)cc1)c1oc2cc3c(cc2c1-c1ccc(OCCN2CCOCC2)cc1)CCCO3 [Example 41, 2-(4-bromobenzoyl)-3-[4-(morpholinoethoxy)phenyl]-6,7-dihydrogen-5H-furo[3,2-g]chromene]	–	42.5 µM	5 µM	–
COc1ccc(-c2c(C(=O)c3ccc(Cl)cc3)oc3cc4c(cc23)CCCO4)cc1 [Example 3, 2-(4-chlorobenzoyl)-3-(4-methoxyphenyl)-6,7-dihydrogen-5H-furo[3,2-g]chromene]	–	–	21.7 µM	–
O=C(c1ccc(Cl)cc1)c1oc2cc3c(cc2c1-c1ccc(OCCN2CCCCC2)cc1)CCCO3 [Example 30, 2-(4-chlorobenzoyl)-3-[4-(piperidinoethoxy)phenyl]-6,7-dihydrogen-5H-furo[3,2-g]chromene]	–	–	26.3 µM	72.2 µM
CCN(CC)CCOc1ccc(-c2c(C(=O)c3ccc(Cl)cc3)oc3cc4c(cc23)CCCO4)cc1 [Example 31, 2-(4-chlorobenzoyl)-3-[4-(diethylaminoethoxy)phenyl]-6,7-dihydrogen-5H-furo[3,2-g]chromene]	–	8.5 µM	36.1 µM	–
CCN(CC)CCOc1ccc(-c2c(C(=O)c3ccc(C)cc3)oc3cc4c(cc23)CCCO4)cc1 [Example 35, 2-(4-methylbenzoyl)-3-[4-(diethylaminoethoxy)phenyl]-6,7-dihydrogen-5H-furo[3,2-g]chromene]	–	29.7 µM	5.8 µM	–
O=C(c1ccc(Br)cc1)c1oc2cc3c(cc2c1-c1ccc(OCCN2CCCCC2)cc1)CCCO3 [Example 42, 2-(4-bromobenzoyl)-3-[4-(piperidinoethoxy)phenyl]-6,7-dihydrogen-5H-furo[3,2-g]chromene]	–	32.8 µM	13.3 µM	–
CN(C)CCOc1ccc(-c2c(C(=O)c3ccc(Br)cc3)oc3cc4c(cc23)CCCO4)cc1 [Example 44, 2-(4-bromobenzoyl)-3-[4-(dimethylaminoethoxy)phenyl]-6,7-dihydrogen-5H-furo[3,2-g]chromene]	–	19 µM	15.6 µM	–
COc1ccc(-c2c(C(=O)c3ccc(OCCN4CCCCC4)cc3)oc3cc4c(cc23)CCCO4)cc1 [Example 48, 2-[4-(piperidinoethoxy)benzoyl]-3-(4-methoxyphenyl)-6,7-dihydrogen-5H-furo[3,2-g]chromene]	–	14.5 µM	5.1 µM	–
O=C(c1ccccc1)c1oc2cc3c(cc2c1-c1ccc(O)cc1)CCCO3 [Example 7, 2-benzoyl-3-(4-hydroxyphenyl)-6,7-dihydrogen-5H-furo[3,2-g]chromene]	–	0.8 µM	13.7 µM	–
COc1ccc(C(=O)c2oc3cc4c(cc3c2-c2ccccc2)CCCO4)cc1 [Example 2, 2-(4-methoxybenzoyl)-3-phenyl-6,7-dihydrogen-5H-furo[3,2-g]chromene]	130.3 to 132.5 °C	–	–	–
CCN(CC)CCOc1ccc(-c2c(C(=O)c3ccccc3)oc3cc4c(cc23)CCCO4)cc1 [Example 21, 2-benzoyl-3-[4-(diethylaminoethoxy)phenyl]-6,7-dihydrogen-5H-furo[3,2-g]chromene]	–	–	16.5 µM	28.2 µM
O=C(c1ccc(OCCN2CCCCC2)cc1)c1oc2cc3c(cc2c1-c1ccc(O)cc1)CCCO3 [Example 55, 2-[4-(piperidinoethoxy)benzoyl]-3-(4-hydroxyphenyl)-6,7-dihydrogen-5H-furo[3,2-g]chromene]	–	–	10.8 µM	13.6 µM
CCN(CC)CCOc1ccc(C(=O)c2oc3cc4c(cc3c2-c2ccc(OC)cc2)CCCO4)cc1 [Example 50, 2-[4-(diethylaminoethoxy)benzoyl]-3-(4-methoxyphenyl)-6,7-dihydrogen-5H-furo[3,2-g]chromene]	–	14.5 µM	5.5 µM	–
